From patent US20200040025A1, “URIDINE NUCLEOSIDE DERIVATIVES, COMPOSITIONS AND METHODS OF USE” (Tufts University, priority 2016, published 2020)

target: T1, P2Y6 receptor (Homo sapiens, UniProt Q15077); assay: Activation of P2Y6 receptor: receptor-induced Ca2+ changes measured with fluo-4; assay type: cell-based; conditions: sodium salts of the test compounds; 1321N1 human astrocytoma cells expressing P2Y6; fluo-4 Ca2+ fluorescence; nonlinear curve fit; read-out: EC50 of synthetic compounds for activation of P2Y6 receptor
T1 construct: expressed in transfected cells; host or cells: 1321N1 human astrocytoma cells
T1 sequence (Q15077 whole entry): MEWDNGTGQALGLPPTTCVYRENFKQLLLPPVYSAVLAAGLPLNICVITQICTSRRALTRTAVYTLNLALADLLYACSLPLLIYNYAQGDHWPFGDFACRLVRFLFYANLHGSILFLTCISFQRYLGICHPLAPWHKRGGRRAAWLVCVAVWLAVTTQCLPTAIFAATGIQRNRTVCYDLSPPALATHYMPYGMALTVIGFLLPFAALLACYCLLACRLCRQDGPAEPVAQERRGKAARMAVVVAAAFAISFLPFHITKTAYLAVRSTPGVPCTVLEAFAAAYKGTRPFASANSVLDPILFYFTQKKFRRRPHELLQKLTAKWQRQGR
Procedure: Synthetic compounds were tested for activation of P2Y6 receptor by measuring receptor induced Ca^2+ changes with the fluorescent Ca^2+ indicator fluo-4. 1321N1 human astrocytoma cell lines either expressing P2Y2, P2Y4 or P2Y6. Receptors were plated into 24-well plates. Two days after plating, fluorometric measurements were made and responses of cells to a serial dilution of the sodium salts of the test compounds were determined. P2Y6 receptor mediated Ca^2+ fluorescent change was determined by normalized accumulation of fluorescent change of 3 timepoints after compound administration subtracted by value from ACSF control. Changes in fluorescent intensity were plotted corresponding to compound concentration in GraphPad.

Row | EC50 [nM] | Compound
1 | 500 to 1000 | O=c1ccn([C@@H]2O[C@H](COP(=O)(O)OP(=O)(O)O)C(O)C2O)c(=O)n1Cc1cc(-c2ccccn2)ccn1 (stereo partly drawn) [Compound 34]
2 | 500 to 1000 | O=c1ccn([C@@H]2O[C@H](COP(=O)(O)OP(=O)(O)O)C(O)C2O)c(=O)n1Cc1cc(Nc2ccccc2)ccn1 (stereo partly drawn) [Compound 37]
3 | < 500 | O=c1ccn([C@@H]2O[C@H](COP(=O)(O)OP(=O)(O)O)C(O)C2O)c(=O)n1Cc1cc(Oc2ccccc2)ccn1 (stereo partly drawn) [Compound 36]
4 | > 2000 | O=c1ccn([C@@H]2O[C@H](COP(=O)(O)OP(=O)(O)O)C(O)C2O)c(=O)n1Cc1ncccc1-c1ccccc1 (stereo partly drawn) [Compound 31]
5 | < 500 | O=c1ccn([C@@H]2O[C@H](COP(=O)(O)OP(=O)(O)O)C(O)C2O)c(=O)n1Cc1cc(Cc2ccccc2)ccn1 (stereo partly drawn) [Compound 35]
6 | < 500 | O=c1ccn([C@@H]2O[C@H](COP(=O)(O)OP(=O)(O)O)C(O)C2O)c(=O)n1Cc1ccc(-c2ccccc2)cn1 (stereo partly drawn) [Compound 29]

Further lines, the compound ahead of its results:

Row | Compound | EC50 [nM]
7 | O=c1ccn([C@@H]2O[C@H](COP(=O)(O)OP(=O)(O)O)C(O)C2O)c(=O)n1Cc1cc(-c2ccncc2)ccn1 (stereo partly drawn) [Compound 32] | 1000 to 2000
8 | O=c1ccn([C@@H]2O[C@H](COP(=O)(O)OP(=O)(O)O)C(O)C2O)c(=O)n1Cc1cccc(-c2ccccc2)c1 (stereo partly drawn) [Compound 41] | < 500
9 | O=c1ccn([C@@H]2O[C@H](COP(=O)(O)OP(=O)(O)O)C(O)C2O)c(=O)n1Cc1ccc(-c2ccccc2)s1 (stereo partly drawn) [Compound 42] | < 500
10 | O=c1ccn([C@@H]2O[C@H](COP(=O)(O)OP(=O)(O)O)C(O)C2O)c(=O)n1Cc1cc(N2CCCCC2)ccn1 (stereo partly drawn) [Compound 40] | > 2000
11 | O=c1ccn([C@@H]2O[C@H](COP(=O)(O)OP(=O)(O)O)C(O)C2O)c(=O)n1Cc1ncc(-c2ccccc2)o1 (stereo partly drawn) [Compound 45] | < 500
12 | O=c1ccn([C@@H]2O[C@H](COP(=O)(O)OP(=O)(O)O)C(O)C2O)c(=O)n1Cc1ncc(-c2ccccc2)s1 (stereo partly drawn) [Compound 43] | < 500
13 | O=c1ccn([C@@H]2O[C@H](COP(=O)(O)OP(=O)(O)O)C(O)C2O)c(=O)n1Cc1cc(C2CCCC2)ccn1 (stereo partly drawn) [Compound 38] | 500 to 1000
14 | O=c1ccn([C@@H]2O[C@H](COP(=O)(O)OP(=O)(O)O)C(O)C2O)c(=O)n1Cc1cccc(-c2ccccc2)n1 (stereo partly drawn) [Compound 30] | 1000 to 2000
15 | O=c1ccn([C@@H]2O[C@H](COP(=O)(O)OP(=O)(O)O)C(O)C2O)c(=O)n1Cc1cnc(-c2ccccc2)o1 (stereo partly drawn) [Compound 46] | 500 to 1000
16 | O=c1ccn([C@@H]2O[C@H](COP(=O)(O)OP(=O)(O)O)C(O)C2O)c(=O)n1Cc1cc(C2CCCCC2)ccn1 (stereo partly drawn) [Compound 39] | 500 to 1000
17 | O=c1ccn([C@@H]2O[C@H](COP(=O)(O)OP(=O)(O)O)C(O)C2O)c(=O)n1Cc1cnc(-c2ccccc2)s1 (stereo partly drawn) [Compound 44] | 1000 to 2000
18 | O=c1ccn([C@@H]2O[C@H](COP(=O)(O)OP(=O)(O)O)C(O)C2O)c(=O)n1Cc1ccc(-c2ccccc2)o1 (stereo partly drawn) [Compound 47] | < 500
